Test results from patent publication US8088806B2 (Achillion Pharmaceuticals, Inc., priority 2005, dated 2012).

These compounds were tested on HCV replicon (assay: Replicon based assay of HCV replication inhibition (NPT ELISA)). Details: Hepatitis C virus, Huh-7, 72 h, Table I; Huh-7 HCV replicon-containing cells, three days; read-out: Activity.
Type: cell-based, Hepatitis C virus
Procedure, shortened: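 NPT (neomycin phosphotransferase) content, proportional to replicon replication, quantified by capture ELISA on day four. Before that, replicon-bearing Huh-7 cells in G418-free screening medium were exposed three days at 37° C to compound, typically six doses from 10 to 0.03 micromolar, with equal DMSO across wells.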
In the case of CCCCCOc1ccc(Nc2nc(-c3ccc(C(=O)O)cn3)cs2)cc1C(F)(F)F [compound 213, 6-(2-(3-(trifluoromethyl)-4-(pentyloxy)phenylamino)thiazol-4-yl)pyridine-3-carboxylic acid], the EC50 is reported as under 1000 nM.
Compound CCCCCOc1ccc(Nc2nc(CN(C)C)cs2)cc1C(F)(F)F [compound 172, 4-((dimethylamino)methyl)-N-(3-(trifluoromethyl)-4-(pentyloxy)phenyl)thiazol-2-amine] has an EC50 of under 1000 nM.
Compound CC(C)(C)c1ccc(NC(=O)c2nc(-c3cccnc3)cs2)cc1 [compound 111, N-(4-tert-butylphenyl)-4-(pyridin-3-yl)thiazole-2-carboxamide] has an EC50 of over 10000 nM.
Fc1ccc(-c2csc(Nc3cccc(Oc4ccccc4)c3)n2)cc1 [compound 31, 4-(4-fluorophenyl)-N-(3-phenoxyphenyl)thiazol-2-amine] was tested, and the EC50 was under 1000 nM.
For Clc1ccc(Nc2nc(-c3ccc(Cl)c(Cl)c3)cs2)cc1Cl [compound 48, N,4-bis(3,4-dichlorophenyl)thiazol-2-amine], the EC50 was under 1000 nM.
c1ccc(Oc2ccc(Nc3nc(-c4cccnc4)cs3)cc2)cc1 [compound 141, N-(4-phenoxyphenyl)-4-(pyridin-3-yl)thiazol-2-amine] gave an EC50 of under 1000 nM.
Fc1ccc(-c2csc(Nc3nc(-c4ccc(Cl)cc4)cs3)n2)cc1 [compound 145, 4-(4-chlorophenyl)-N-(4-(4-fluorophenyl)thiazol-2-yl)thiazol-2-amine] was tested, and the EC50 was over 10000 nM.
With Clc1ccc(-c2csc(Nc3cccc(OCc4ccccc4)c3)n2)cc1 [compound 30, N-(3-(benzyloxy)phenyl)-4-(4-chlorophenyl)thiazol-2-amine] the EC50 was under 1000 nM.
For CCCCCOc1ccc(Nc2ncc(C(=O)Nc3ccc(C#N)cc3)s2)cc1C(F)(F)F [compound 150, 2-(3-(trifluoromethyl)-4-(pentyloxy)phenylamino)-N-(4-cyanophenyl)thiazole-5-carboxamide], the EC50 was under 1000 nM.
With CCCCCOc1ccc(Nc2nc(C(=O)Nc3ccc(OC)cc3)cs2)cc1C(F)(F)F [compound 16, 2-(3-(trifluoromethyl)-4-(pentyloxy)phenylamino)-N-(4-methoxyphenyl)thiazole-4-carboxamide] the EC50 was over 10000 nM.

Same assay, conditions: Hepatitis C virus, Huh-7, 72 h, Table III; Huh-7 HCV replicon-containing cells, three days; read-out: Activity
CCCCCCCc1ccc(Nc2nc(-c3ccc(Cl)s3)cs2)cc1 [compound 558, 4-(5-chlorothiophen-2-yl)-N-(4-heptylphenyl)thiazol-2-amine] was tested, and the EC50 was under 1000 nM.
In the case of CCCCCCCCOc1ccc(Nc2nc(-c3ccc[n+]([O-])c3)cs2)cc1 [compound 522], the EC50 is reported as under 1000 nM.
For CCCCCCCCc1ccc(Nc2nc(-c3ccc[n+]([O-])c3)cs2)cc1 [compound 524], the EC50 was under 1000 nM.
Compound CCCCCOc1ccc(Nc2nc3c(s2)CCc2ncccc2-3)cc1C(F)(F)F [compound 594] has an EC50 of under 1000 nM.

Same assay, conditions: Hepatitis C virus, replicon based assay of HCV replication inhibition; Table II; read-out: Activity
CCCCCCCc1ccc(Nc2nc(Cc3ccccc3)cs2)cc1 [compound 515, 4-benzyl-N-(4-heptylphenyl)thiazol-2-amine] gave an EC50 of over 10000 nM.
CCCCCCCCN(C)c1ccc(Nc2nc(Cc3cccnc3)cs2)cc1C(F)(F)F [compound 500, 2-(trifluoromethyl)-N^1-methyl-N^1-octyl-N^4-(4-((pyridin-3-yl)methyl)thiazol-2-yl)benzene-1,4-diamine] gave an EC50 of under 1000 nM.
CCCCCCCc1ccc(Nc2nc(Cc3cccnc3)cs2)cc1 [compound 504, N-(4-heptylphenyl)-4-((pyridin-3-yl)methyl)thiazol-2-amine] showed an EC50 of 1000 to 10000 nM.
In the case of CCCCCCCCOc1ccc(Nc2nc(-c3cccnc3C)cs2)cc1 [compound 442, 4-(2-methylpyridin-3-yl)-N-(4-(octyloxy)phenyl)thiazol-2-amine], the EC50 is reported as under 1000 nM.
With CCCCCCCOc1ccc(Nc2nc(-c3ccc(O)c(O)c3)cs2)cc1 [compound 392, 4-(2-(4-(heptyloxy)phenylamino)thia-zol-4-yl)benzene-1,2-diol] the EC50 was under 1000 nM.
With COc1ccc(CNc2nc(-c3ccc(CC(=O)O)cc3)c(C)s2)cc1 [compound 346, 2-(4-(2-(4-methoxybenzylamino)-5-methylthiazol-4-yl)phenyl)acetic acid] the EC50 was over 10000 nM.
With Cc1sc(NC(=O)c2ccccc2)nc1-c1ccc(OCC(=O)O)cc1 [compound 340, 2-(4-(2-benzamido-5-methylthiazol-4-yl)phenoxy)acetic acid] the EC50 was over 10000 nM.
Compound CCCCCOc1ccc(Nc2nc(CC)cs2)cc1C(F)(F)F [compound 415, 4-ethyl-N-(3-(trifluoromethyl)-4-(pentyloxy)phenyl)thiazol-2-amine] has an EC50 of under 1000 nM.
CCCCCOc1ccc(Nc2nc(-c3ccc(CO)nc3)cs2)cc1C(F)(F)F [compound 264, (5-(2-(4-(pentyloxy)-3-(trifluoromethyl)phenyl-amino)thiazol-4-yl)pyridin-2-yl)methanol] gave an EC50 of under 1000 nM.
For CN(CCCCCCO)c1ccc(Nc2nc(-c3ccc(F)cc3)cs2)cc1C(F)(F)F [compound 470, 6-(N-(4-(4-(4-fluorophenyl)thiazol-2-ylamino)-2-(trifluoromethyl)phenyl)-N-methylamino)hexan-1-ol], the EC50 was 1000 to 10000 nM.
For CCCCCCCCOc1ccc(Nc2nc(Cc3ccccc3)cs2)cc1 [compound 513, 4-benyl-N-(4-(octyloxy)phenyl)thiazol-2-amine], the EC50 was over 10000 nM.
O=C(O)Cc1ccc(-c2csc(Nc3ccc(OC4CCCC4)c(C(F)(F)F)c3)n2)s1 [compound 247, 2-(5-(2-(4-(cyclopentyloxy)-3-(trifluoromethyl)phenyl-amino)-thiazol-4-yl)thiophen-2-yl)acetic acid] gave an EC50 of under 1000 nM.
FC(F)(F)c1cc(Nc2nc(-c3cccnc3)cs2)ccc1OCCCC1CCCC1 [compound 495, N-(4-(3-cyclopentylpropoxy)-3-(trifluoromethyl)phenyl)-4-(pyridin-3-yl)thiazol-2-amine] gave an EC50 of under 1000 nM.
For COc1ccc(CNc2nc(-c3ccc(OC)cc3)c(-c3ccc(OC)cc3)s2)cc1 [compound 336, N-(4-methoxybenzyl)-4,5-bis(4-methoxypheenyl)thiazol-2-amine], the EC50 was over 10000 nM.
CCCCCOc1ccc(Nc2nc(-c3ccccc3O)cs2)cc1C(F)(F)F [compound 371, 2-(2-(4-(pentyloxy)-3-(trifluoromeethyl)phenyl-amino)thiazol-4-yl)phenol] gave an EC50 of 1000 to 10000 nM.
CCCCCCCCOc1ccc(Nc2nc(-c3cc4ccccc4o3)cs2)cc1 [compound 389] was tested, and the EC50 was under 1000 nM.
Compound CCCCCOc1ccc(Nc2nc(-c3csc(N)n3)cs2)cc1C(F)(F)F [compound 262, 4-(2-aminothiazol-4-yl)-N-(4-(pentyloxy)-3-(trifluoromethyl)phenyl)thia-zol-2-amine] has an EC50 of under 1000 nM.
Compound CCCCCOc1ccc(Nc2nc(C3CCCN(C(=O)OC(C)(C)C)C3)cs2)cc1C(F)(F)F (centres unmarked) [compound 224, tert-butyl 3-(2-(4-(pentyloxy)-3-(trifluoromethyl)phenyl-amino)thiazol-4-yl)piperidine-1-carboxylate] has an EC50 of under 1000 nM.
For CCOC(=O)c1ccc(Nc2nc(-c3ccc(F)cc3)c(C)s2)cc1 [compound 347, ethyl 4-(4-(4-fluorophenyl)-5-mthylthiazol-2-ylamino)benzoate], the EC50 was over 10000 nM.
In the case of CCCCCCCOc1ccc(Nc2nc(-c3ccc(Cl)s3)cs2)cc1 [compound 393, 4-(5-chlorothiophen-2-yl)-N-(4-(heptyloxy)phenyl)thiazol-2-amine], the EC50 is reported as under 1000 nM.
In the case of CCCCCCCOc1ccc(Nc2nc(-c3cccc(O)c3)cs2)cc1 [compound 435, 3-(2-(4-(heptyloxy)phenylamino)thia-zol-4-yl)phenol], the EC50 is reported as under 1000 nM.
CCCCCCCCN(C)c1ccc(Nc2nc(-c3ccc(F)nc3)cs2)cc1C(F)(F)F [compound 489, 2-(trifluoromethyl)-N^4-(4-(6-fluoropyridin-3-yl)thiazol-2-yl)-N^1-methyl-N^1-octylbenzene-1,4-diamine] was tested, and the EC50 was under 1000 nM.
Work on FC(F)(F)c1cc(Nc2nc(-c3cccnc3)cs2)ccc1OC1CCCC1 [compound 238, N-(4-(cyclopentyloxy)-3-(trifluoromethyl)phenyl)-4-(pyridin-3-yl)thiazol-2-amine] yielded an EC50 of under 1000 nM.
Cc1ccc(-c2csc(Nc3ccc(OCCCC4CCCC4)c(C(F)(F)F)c3)n2)cn1 [compound 496, N-(4-(3-cyclopentylpropoxy)-3-(trifluoromethyl)phenyl)-4-(6-methylpyridin-3-yl)thiazol-2-amine] showed an EC50 of under 1000 nM.

Same assay, conditions: Hepatitis C virus, replicon based assay of HCV replication inhibition; Table IV; read-out: Activity
CCCCCCCCOc1ccc(Nc2nc(-c3nc(C(=O)OCC)cs3)cs2)cc1C(F)(F)F [compound 731, ethyl 2-(2-(3-(trifluoromethyl)-4-(octyloxy)phenylamino)thiazol-4-yl)thiazole-4-carboxylate] gave an EC50 of under 1000 nM.
Compound Cc1nc2cc(Nc3nc(-c4cccnc4)cs3)ccc2s1 [compound 745, 2-methy1-N-(4-(pyridin-3-yl)thiazol-2-yl)benzo[d]thiazol-5-amine] has an EC50 of over 10000 nM.
Work on OCc1cc2cc(-c3csc(Nc4ccc(OCC5CCCCC5)c(C(F)(F)F)c4)n3)ccc2o1 [compound 765, (5-(2-(4-(cyclohexylmethoxy)-3-(trifluoromethyl)phenylamino)thiazol-4-yl)benzofuran-2-yl)methanol] yielded an EC50 of under 1000 nM.
In the case of CCOC(=O)Cc1ccc(-c2csc(Nc3ccc(OCCCCc4ccccc4)c(C(F)(F)F)c3)n2)s1 [compound 928, ethyl 2-(5-(2-(4-(4-phenylbutoxy)-3-(trifluoromethyl)phenylamino)thiazol-4-yl)thiophen-2-yl)acetate], the EC50 is reported as 1000 to 10000 nM.
Compound CCCCCCCCOc1ccc(Nc2nc(-c3c[nH]nc3C#N)cs2)cc1C(F)(F)F [compound 809, 4-(2-(3-(trifluoromethyl)-4-(octyloxy)phenylamino)thiazol-4-yl)-1H-pyrazole-3-carbonitrile] has an EC50 of under 1000 nM.
Compound CCCCCCCOc1ccc(Nc2nc(-c3cccnc3)cs2)cc1C(F)(F)F [compound 823, N-(3-(trifluoromethyl)-4-(heptyloxy)phenyl)-4-(pyridin-3-yl)thiazol-2-amine] has an EC50 of under 1000 nM.
